Reference: patent publication US8026218B2, “Bifunctional analgesic compounds for opioid receptor agonists and neurokinin-1 receptor antagonists” (The University of Arizona, priority 2006, dated 2011)
Where two headings read alike, the source gives them in different places.

Tests used:
[1] = target: T1, Substance P receptors (guinea pig NK1) (Cavia porcellus, UniProt P30547); assay: Guinea pig isolated ileum (GPI) assay with substance P stimulation in presence of 1 μM naloxone
T1 construct: from tissue; host or cells: guinea pig (Hartley) ileum LMMP, 1 μM naloxone present

[2] = target: T2, human NK1 receptor (hNK1) (Homo sapiens, UniProt P25103); assay: Radioligand competition binding, [3H]-Substance P, hNK1
T2 construct: expressed in transfected cells

[3] = Solubility in HEPES buffer; assay type: physicochemical
Experimental: Solubility. HEPES buffer (0.05 M HEPES buffer in 0.1 M NaCl, pH 7.4, 500 μL) was added to 1 mg of compound. The sample was vortexed for 30 sec, sonicated for 5 min, shaken at r.t. for 2 h, and then allowed to be stayed overnight to equilibration. The sample was filtrated with an Acrodisc Syringe Filter (13 mm, 0.45 μm pore, PTFE membrane, Pall Life Sciences, East Hills, N.Y.).

[4] = target: T3, rat μ opioid receptors (rMOR) (Rattus norvegicus, UniProt P33535); assay: biochemical; assay type: biochemical
T3 construct: expressed in transfected cells; host or cells: HN9.10 neuroblastoma cell line, pCDNA3, neomycin-selected clones

δ opioid receptors (MVD) = target: T4, δ opioid receptors (MVD) (Mus musculus, UniProt P32300); assay: Mouse isolated vas deferens (MVD) assay, opioid agonist
T4 construct: from tissue; host or cells: mouse (ICR) isolated vas deferens

[5] = target: T3, rat μ opioid receptors (rMOR); assay: Radioligand competition binding, [3H]DAMGO, rMOR membranes
rNK1 = rNK1 (Rattus norvegicus, UniProt P14600); details: previous studies; read-out: Affinity (Ki in nM), rNK1; cited from earlier work
MOR = MOR (Homo sapiens, UniProt P35372); details: previous studies; read-out: Affinity (Ki in nM), MOR; cited from earlier work
rat NK1 (rNK1) receptor = target: T5, rat NK1 (rNK1) receptor (Rattus norvegicus, UniProt P14600); assay: Radioligand competition binding, [3H]substance P, rNK1/CHO membranes; details: Table 29; read-out: Affinity rNK1 (Ki; nM)
T5 construct: expressed in transfected cells; host or cells: CHO (rNK-1/CHO cell line from Dr. James Krause)

μ opioid receptors (GPI) = assay: Guinea pig isolated ileum (GPI) assay, opioid agonist;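 further: inhibition of electrically evoked contractions (0.1 Hz, 0.4 msec, supramaximal voltage) in organ baths at 37 °C, contraction height 3 min after each cumulative dose versus the 1 min before dosing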
Experimental: Guinea Pig Isolated Ileum Assay. […] These tissues were tied to gold chains with suture silk and mounted between platinum wire electrodes in 20 mL organ baths at a tension of 1 g and bathed in oxygenated (95:5 O2:CO2) Kreb's bicarbonate buffer at 37° C. and stimulated electrically (0.1 Hz, 0.4 msec duration) at supramaximal voltage. Following an equilibration period, compounds were added cumulatively to the bath in volumes of 14-60 μL until maximum inhibition was reached. A baseline PL-017 was constructed to determine tissue integrity and allow calculation of antagonist activity before opioid analog testing began.
For opioid data analysis, percentage inhibition was calculated using the average tissue contraction height for 1 min preceding the addition of the agonist divided by the contraction height 3 min after exposure to the dose of agonist. […] IC50 and Emax estimates were determined by computerized nonlinear least-squares analysis (the pharmacological statistics package FlashCalc: Dr. Michael Ossipov, University of Arizona, Tucson, Ariz.). […] A50 values represent the mean of not less than 4 tissues. A50 and Emax estimates were determined by computerized nonlinear least-squares analysis (FlashCalc).

[6] = Octanol/saline distribution (logD7.4); assay type: physicochemical; details: 0.05 N HEPES buffer in 0.1 N NaCl
Experimental: HEPES buffer (0.05 M HEPES buffer in 0.1 M NaCl, pH 7.4, 500 μL) was added to 2 mg of compound and mixed with 500 μL of 1-octanol. The sample was shaken at r.t. for 12 h to allow equilibrating. The sample was centrifuged at 6500 rpm in a VanGuard V6500 (GlaxoSmithKline, Research Triangle Park, N.C.) for 15 min. The layers were separated and each layer was centrifuged once again. The compound concentrations of obtained layers were analyzed by HPLC (30-70% of acetonitrile containing 0.1% TFA within 20 min and up to 95% within additional 5 min, 1 mL/min, 230 nm, Vydac 218TP104 C-18 column). The logarithm of 1-octanol/saline distribution (logD7.4) was calculated as the ratio of compound concentration in the 1-octanol and saline phases.
Octanol/saline distribution (logD7.4) (Yamamoto, 2007, J. Med. Chem., submitted). HEPES buffer (0.05 M HEPES buffer in 0.1 M NaCl, pH 7.4, 500 μL) was added to 2 mg of compound and mixed with 500 μL of 1-octanol. The sample was shaken at r.t. for 12 h to allow equilibrating. The sample was centrifuged at 6500 rpm in a VanGuard V6500 (GlaxoSmithKline, Research Triangle Park, N.C.) for 15 min. The layers were separated and each layer was centrifuged once again. The compound concentrations in the obtained layers were analyzed by HPLC (30-70% of acetonitrile containing 0.1% TFA within 20 min and up to 95% within additional 5 min, 1 mL/min, 230 nm, Vydac 218TP104 C-18 column). The logarithm of 1-octanol/saline distribution (logD7.4) was calculated as the ratio of compound concentration in the 1-octanol and saline phases.

[7] = target: T6, human δ opioid receptors (hDOR) (Homo sapiens, UniProt P41143); assay: [35S]GTP-γ-S binding assay, hDOR; assay type: biochemical
T6 construct: expressed in transfected cells; host or cells: HN9.10 neuroblastoma cell line, pCDNA3, neomycin-selected clones
T6 sequence (P41143 whole entry): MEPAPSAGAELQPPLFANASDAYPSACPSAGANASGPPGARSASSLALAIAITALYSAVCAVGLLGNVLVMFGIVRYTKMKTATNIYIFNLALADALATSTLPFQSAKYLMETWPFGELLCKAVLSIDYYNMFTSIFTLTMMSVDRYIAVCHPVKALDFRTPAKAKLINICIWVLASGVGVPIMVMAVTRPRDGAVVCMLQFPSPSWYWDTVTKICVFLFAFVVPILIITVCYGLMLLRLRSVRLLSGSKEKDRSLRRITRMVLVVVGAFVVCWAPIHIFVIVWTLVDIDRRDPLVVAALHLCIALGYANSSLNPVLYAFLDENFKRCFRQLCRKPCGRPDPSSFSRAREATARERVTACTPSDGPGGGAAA

T3 sequence (P33535 whole entry): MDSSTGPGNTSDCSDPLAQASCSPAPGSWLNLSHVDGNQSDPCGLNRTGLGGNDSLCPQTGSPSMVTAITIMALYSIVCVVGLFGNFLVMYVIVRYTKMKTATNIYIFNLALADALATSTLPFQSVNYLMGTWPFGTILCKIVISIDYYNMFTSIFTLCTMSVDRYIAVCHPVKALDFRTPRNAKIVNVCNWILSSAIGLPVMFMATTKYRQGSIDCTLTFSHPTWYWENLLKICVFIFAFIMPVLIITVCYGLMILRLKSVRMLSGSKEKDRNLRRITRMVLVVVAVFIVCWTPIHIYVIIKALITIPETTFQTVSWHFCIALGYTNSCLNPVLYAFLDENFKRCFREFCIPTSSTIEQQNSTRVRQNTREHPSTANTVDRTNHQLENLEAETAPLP
T2 sequence (P25103 whole entry): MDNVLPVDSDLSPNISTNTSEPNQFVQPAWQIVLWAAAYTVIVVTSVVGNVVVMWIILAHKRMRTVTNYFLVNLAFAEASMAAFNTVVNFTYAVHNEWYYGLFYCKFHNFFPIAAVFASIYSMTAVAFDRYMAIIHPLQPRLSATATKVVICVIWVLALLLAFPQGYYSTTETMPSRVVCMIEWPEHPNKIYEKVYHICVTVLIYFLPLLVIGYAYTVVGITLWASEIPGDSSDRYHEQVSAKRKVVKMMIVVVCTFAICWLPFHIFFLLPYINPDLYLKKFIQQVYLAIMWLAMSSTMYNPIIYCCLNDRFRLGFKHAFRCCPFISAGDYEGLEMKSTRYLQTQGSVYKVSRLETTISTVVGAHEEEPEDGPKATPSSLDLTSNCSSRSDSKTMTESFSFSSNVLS
T4 sequence (P32300 whole entry): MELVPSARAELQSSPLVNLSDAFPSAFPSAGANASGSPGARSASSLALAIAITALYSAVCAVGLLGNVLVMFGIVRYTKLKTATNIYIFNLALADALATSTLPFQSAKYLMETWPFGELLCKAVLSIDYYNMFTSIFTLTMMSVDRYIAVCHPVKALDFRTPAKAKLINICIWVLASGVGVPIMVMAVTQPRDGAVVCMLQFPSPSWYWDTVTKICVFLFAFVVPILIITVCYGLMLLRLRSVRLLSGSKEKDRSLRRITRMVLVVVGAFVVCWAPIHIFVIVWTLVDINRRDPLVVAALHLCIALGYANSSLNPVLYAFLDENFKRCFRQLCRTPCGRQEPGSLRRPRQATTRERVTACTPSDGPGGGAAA
Sequence of MOR (P35372 whole entry): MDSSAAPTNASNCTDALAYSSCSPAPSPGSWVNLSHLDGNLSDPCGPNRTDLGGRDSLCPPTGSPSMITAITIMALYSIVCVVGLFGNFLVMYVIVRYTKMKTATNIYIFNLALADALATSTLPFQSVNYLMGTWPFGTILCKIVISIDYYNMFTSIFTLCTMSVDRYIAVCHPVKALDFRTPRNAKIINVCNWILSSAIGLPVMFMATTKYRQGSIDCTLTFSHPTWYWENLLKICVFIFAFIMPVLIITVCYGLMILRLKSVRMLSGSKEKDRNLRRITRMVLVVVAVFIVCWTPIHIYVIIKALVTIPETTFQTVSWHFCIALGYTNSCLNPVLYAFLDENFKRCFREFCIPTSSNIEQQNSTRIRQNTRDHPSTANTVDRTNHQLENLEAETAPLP
T1 sequence (P30547 whole entry): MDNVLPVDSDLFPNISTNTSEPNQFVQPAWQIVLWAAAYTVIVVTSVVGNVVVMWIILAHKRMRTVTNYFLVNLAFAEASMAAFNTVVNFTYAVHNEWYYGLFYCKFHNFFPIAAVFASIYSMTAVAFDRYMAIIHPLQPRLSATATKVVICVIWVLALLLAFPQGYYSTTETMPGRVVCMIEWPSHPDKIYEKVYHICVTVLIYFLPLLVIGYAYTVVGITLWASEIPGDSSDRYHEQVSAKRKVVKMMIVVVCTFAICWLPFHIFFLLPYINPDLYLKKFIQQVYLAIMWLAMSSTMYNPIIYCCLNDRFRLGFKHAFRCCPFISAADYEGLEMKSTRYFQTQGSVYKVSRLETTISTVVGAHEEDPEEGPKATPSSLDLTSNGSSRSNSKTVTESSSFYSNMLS
Sequence of rNK1 (P14600 whole entry): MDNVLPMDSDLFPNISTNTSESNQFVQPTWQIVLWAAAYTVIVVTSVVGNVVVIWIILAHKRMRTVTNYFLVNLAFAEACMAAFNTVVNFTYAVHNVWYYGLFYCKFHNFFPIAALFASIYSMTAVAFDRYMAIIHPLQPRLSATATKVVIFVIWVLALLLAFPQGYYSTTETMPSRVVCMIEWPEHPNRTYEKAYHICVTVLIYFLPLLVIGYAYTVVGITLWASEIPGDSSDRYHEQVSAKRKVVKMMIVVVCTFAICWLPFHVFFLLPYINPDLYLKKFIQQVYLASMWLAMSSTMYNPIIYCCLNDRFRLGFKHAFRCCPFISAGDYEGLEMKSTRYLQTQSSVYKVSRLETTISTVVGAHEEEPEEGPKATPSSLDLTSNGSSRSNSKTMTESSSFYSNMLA
T5 sequence (P14600 whole entry): as above

## CCCC[C@H](NC(=O)[C@H](Cc1ccccc1)NC(=O)CNC(=O)[C@@H](C)NC(=O)[C@@H](N)Cc1ccc(O)cc1)C(=O)N[C@@H](COC1O[C@H](CO)[C@@H](O)[C@H](O)[C@H]1O)C(=O)N[C@@H](CC(C)C)C(=O)N[C@@H](Cc1c[nH]c2ccccc12)C(=O)NCc1cc(C(F)(F)F)cc(C(F)(F)F)c1 (stereo partly shown) [TY044]
[1]; GPI/LMMP SP Antagonist (Ke; nM), Table 24
  Kb: 18.4 nM
[2]
  Ki: 1.3 nM
[3]; Table 26, HEPES buffer pH 7.4
  solubility thermodynamic: < 1 µg/mL
[4]; GTP binding rMOR EC50 (nM)
  EC50: 380 nM
[4]; read-out: GTP binding rMOR Emax
  Emax: 85%
[4]; read-out: GTP binding rMOR Emax (%)
  Emax: 85%
δ opioid receptors (MVD)
  IC50: 18 nM
[5]
  Ki: 3370 nM

## HTyrDAlaGlyPheNHNHTrpCbz [AA501]
rNK1
  Ki: 5000 nM
MOR
  Ki: 80 nM

## CSCC[C@H](NC(=O)[C@H](Cc1ccccc1)NC(=O)CNC(=O)[C@@H](C)NC(=O)[C@@H](N)Cc1ccc(O)cc1)C(=O)N1CCC[C@H]1C(=O)N[C@@H](CC(C)C)C(=O)N[C@@H](Cc1c[nH]c2ccccc12)C(=O)NCc1cc(C(F)(F)F)cc(C(F)(F)F)c1 [TY027, H-Tyr-D-Ala-Gly-Phe-Met-Pro-Leu-Trp-NH-3,5-Bzl(CF3)2]
[1]; Substance P antagonist, GPI, Ke (nM), Table 16, in the presence of 1 μM naloxone
  Kb: 10 ± 2.1 nM
[2]; Ki rNK1 vs Ki hNK1
  species difference between affinities at rNK1 and hNK1: 1100 fold
[3]; pH 7.4, 0.05 N HEPES buffer in 0.1 N NaCl solution
  solubility: < 0.2 µg/mL
δ opioid receptors (MVD)
  IC50: 14.5 nM
Rat NK1 (rNK1) receptor
  Ki: 7.27 nM
μ opioid receptors (GPI); Table 16, electrically stimulated isolated tissue, read-out: Opioid agonist GPI (μ), IC50
  IC50: 490 ± 29 nM
μ opioid receptors (GPI); Table 22, electrically stimulated isolated tissue, read-out: Opioid agonist GPI (μ), IC50
  IC50: 490 ± 29 nM
μ opioid receptors (GPI); Table 30, read-out: GPI/LMMP Opioid(m) Agonist (IC50; nM)
  IC50: 488 nM
μ opioid receptors (GPI); Table 39, read-out: GPI/LMMP opioid(mu) agonist (IC50; nM)
  IC50: 488 nM
μ opioid receptors (GPI); electrically stimulated isolated tissue, read-out: GPI (μ), IC50
  IC50: 490 nM
[6]
  logD7.4: >4.0

## HTyrProPhePheProLeuMetNH2 (H-YPFFPLM-NH2) [ESP6]
rNK1
  Ki: 305 nM
MOR
  Ki: 92 nM

## CCCC[C@H](NC(=O)[C@H](Cc1ccccc1)NC(=O)CNC(=O)[C@@H](C)NC(=O)[C@@H](N)Cc1ccc(O)cc1)C(=O)N1CCC[C@H]1C(=O)NC(COC1OC(CO)C(O)C(O)C1O)C(=O)N[C@@H](Cc1c[nH]c2ccccc12)C(=O)NCc1cc(C(F)(F)F)cc(C(F)(F)F)c1 (stereo partly shown) [TY041]
[3]; Table 26, HEPES buffer pH 7.4
  solubility: < 1 µg/mL
[4]; Table 24, read-out: GTP binding rMOR Emax (%)
  Emax: 42%
[4]; Table 39, read-out: GTP binding rMOR Emax
  Emax: 42%
[7]; read-out: GTP binding hDOR Emax
  Emax: 62%
[7]; read-out: GTP binding hDOR Emax (%)
  Emax: 62%
